Measurements as given in patent US11858941B2, “Heterocyclic and heteroaryl compounds for treating Huntington's disease” (PTC THERAPEUTICS, INC., priority 2018, dated 2024).

Test system: Endogenous Huntingtin Protein
Test: Endogenous Huntingtin Protein Assay (Meso Scale Discovery ELISA-based electrochemiluminescence)
Format: cell-based
Details: MSD plates coated with MW1 (expanded polyglutamine) or MAB2166 capture antibody; lysates
Method in brief: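 MSD electrochemiluminescence sandwich ELISA: MW1 (expanded polyQ) or MAB2166 capture antibody at 1 μg/mL, samples incubated overnight at 4° C. Detection with rabbit monoclonal #5656S then SULFO-TAG anti-rabbit antibody, each 0.25 μg/mL for 1 h at room temperature.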

SMILES: Oc1cc(-c2cn[nH]c2)ccc1-c1cc2[nH]cc(C3CCNCC3)c2nn1 [Cpd 12, 2-[7-(piperidin-4-yl)-5H-pyrrolo[3,2-c]pyridazin-3-yl]-5-(1H-pyrazol-4-yl)phenol]
- IC50: 100 to 500 nM

SMILES: Oc1cc(-c2cn[nH]c2)ccc1-c1cc2[nH]cc(C3=CC4COCC(C3)N4)c2nn1 (stereo not shown) [Cpd 28, 2-[7-(3-oxa-9-azabicyclo[3.3.1]non-6-en-7-yl)-5H-pyrrolo[3,2-c]pyridazin-3-yl]-5-(1H-pyrazol-4-yl)phenol]
- IC50: 1000 to 3000 nM

SMILES: CC1(C)C=C(n2ccc3nc(-c4ccc(-c5cn[nH]c5)cc4O)cnc32)CC(C)(C)N1 [Cpd 8, 5-(1H-pyrazol-4-yl)-2-[5-(2,2,6,6-tetramethyl-1,2,3,6-tetrahydropyridin-4-yl)-5H-pyrrolo[2,3-b]pyrazin-2-yl]phenol]
- IC50: 1000 to 3000 nM

SMILES: CC1(C)CC(n2nnc3cc(-c4ccc(-n5cnc(F)c5)cc4O)nnc32)CC(C)(C)N1 [Cpd 143, 5-(4-fluoro-1H-imidazol-1-yl)-2-[3-(2,2,6,6-tetramethylpiperidin-4-yl)-3H-[1,2,3]triazolo[4,5-c]pyridazin-6-yl]phenol]
- IC50: ≤ 100 nM

SMILES: CC1(C)CC(n2nnc3cc(-c4ccc(-c5ncc(C#N)s5)cc4O)nnc32)CC(C)(C)N1 [Cpd 110, 2-{3-hydroxy-4-[3-(2,2,6,6-tetramethylpiperidin-4-yl)-3H-[1,2,3]triazolo[4,5-c]pyridazin-6-yl]phenyl}-1,3-thiazole-5-carbonitrile]
- IC50: 100 to 500 nM

SMILES: Oc1cc(-c2cn[nH]c2)ccc1-c1cc2cnn(C3CCNCC3)c2nn1 [Cpd 21, 2-[1-(piperidin-4-yl)-1H-pyrazolo[3,4-c]pyridazin-5-yl]-5-(1H-pyrazol-4-yl)phenol]
- IC50: 1000 to 3000 nM

SMILES: Cc1nc(F)c(-c2ccc(-c3cc4nnn(C5CC(C)(C)NC(C)(C)C5)c4nn3)c(O)c2)s1 [Cpd 154, 5-(4-fluoro-2-methyl-1,3-thiazol-5-yl)-2-[3-(2,2,6,6-tetramethylpiperidin-4-yl)-3H-[1,2,3]triazolo[4,5-c]pyridazin-6-yl]phenol]
- IC50: ≤ 100 nM

SMILES: CC1(C)CC(n2nnc3cc(-c4ccc(-c5ccnnc5)cc4O)nnc32)CC(C)(C)N1 [Cpd 76, 5-(pyridazin-4-yl)-2-[3-(2,2,6,6-tetramethylpiperidin-4-yl)-3H-[1,2,3]triazolo[4,5-c]pyridazin-6-yl]phenol]
- IC50: 100 to 500 nM

SMILES: CC1(C)CC(n2nnc3cc(-c4ccc(-c5ncns5)cc4O)nnc32)CC(C)(C)N1 [Cpd 134, 2-[3-(2,2,6,6-tetramethylpiperidin-4-yl)-3H-[1,2,3]triazolo[4,5-c]pyridazin-6-yl]-5-(1,2,4-thiadiazol-5-yl)phenol]
- IC50: ≤ 100 nM

SMILES: CC1(C)CC(n2cnc3nc(-c4ccc(-c5cn[nH]c5)cc4O)cnc32)CC(C)(C)N1 [Cpd 1, 5-(1H-pyrazol-4-yl)-2-[1-(2,2,6,6-tetramethylpiperidin-4-yl)-1H-imidazo[4,5-b]pyrazin-5-yl]phenol]
- IC50: 100 to 500 nM

SMILES: CC1(C)CC(n2nnc3cc(-c4ccc(-c5cn[nH]c5)c(F)c4F)nnc32)CC(C)(C)N1 [Cpd 13, 6-[2,3-difluoro-4-(1H-pyrazol-4-yl)phenyl]-3-(2,2,6,6-tetramethylpiperidin-4-yl)-3H-[1,2,3]triazolo[4,5-c]pyridazine]
- IC50: 100 to 500 nM

SMILES: CC1(C)CC(N2CCc3cc(-c4ccc(-c5cn[nH]c5)c(F)c4F)nnc32)CC(C)(C)N1 [Cpd 32, 3-[2,3-difluoro-4-(1H-pyrazol-4-yl)phenyl]-7-(2,2,6,6-tetramethylpiperidin-4-yl)-6,7-dihydro-5H-pyrrolo[2,3-c]pyridazine]
- IC50: 100 to 500 nM

SMILES: CC1(C)CC(n2nnc3cc(-c4ccc(-n5cncn5)cc4O)nnc32)CC(C)(C)N1 [Cpd 63, 2-[3-(2,2,6,6-tetramethylpiperidin-4-yl)-3H-[1,2,3]triazolo[4,5-c]pyridazin-6-yl]-5-(1H-1,2,4-triazol-1-yl)phenol]
- IC50: ≤ 100 nM

SMILES: CCn1cc(-c2ccc(-c3cc4nnn(C5CC(C)(C)NC(C)(C)C5)c4nn3)c(O)c2)cn1 [Cpd 46, 5-(1-ethyl-1H-pyrazol-4-yl)-2-[3-(2,2,6,6-tetramethylpiperidin-4-yl)-3H-[1,2,3]triazolo[4,5-c]pyridazin-6-yl]phenol]
- IC50: 500 to 1000 nM

SMILES: Cc1cn(-c2ccc(-c3cc4nnn(C5CC(C)(C)NC(C)(C)C5)c4nn3)c(O)c2)c(C)n1 [Cpd 149, 5-(2,4-dimethyl-1H-imidazol-1-yl)-2-[3-(2,2,6,6-tetramethylpiperidin-4-yl)-3H-[1,2,3]triazolo[4,5-c]pyridazin-6-yl]phenol]
- IC50: 1000 to 3000 nM

SMILES: CC1(C)CC(n2nnc3cc(-c4ccc(-c5ccc6nncn6n5)cc4O)nnc32)CC(C)(C)N1 [Cpd 152, 2-[3-(2,2,6,6-tetramethylpiperidin-4-yl)-3H-[1,2,3]triazolo[4,5-c]pyridazin-6-yl]-5-([1,2,4]triazolo[4,3-b]pyridazin-6-yl)phenol]
- IC50: 100 to 500 nM

SMILES: COc1cc(-c2ccc(-c3cc4nnn(C5CC(C)(C)NC(C)(C)C5)c4nn3)c(O)c2)ncn1 [Cpd 113, 5-(6-methoxypyrimidin-4-yl)-2-[3-(2,2,6,6-tetramethylpiperidin-4-yl)-3H-[1,2,3]triazolo[4,5-c]pyridazin-6-yl]phenol]
- IC50: ≤ 100 nM

SMILES: Oc1cc(-c2cn[nH]c2)ccc1-c1cc2scc(C3=CC4COCC(C3)N4)c2nn1 (stereo not shown) [Cpd 25, 2-[7-(3-oxa-9-azabicyclo[3.3.1]non-6-en-7-yl)thieno[3,2-c]pyridazin-3-yl]-5-(1H-pyrazol-4-yl)phenol]
- IC50: ≤ 100 nM

SMILES: CC1(C)C[C@H](n2nnc3cc(-c4ccc(-c5cn[nH]c5)cc4O)nnc32)[C@H](F)C(C)(C)N1 [Cpd 164, 2-{3-[(3S,4S)-3-fluoro-2,2,6,6-tetramethylpiperidin-4-yl]-3H-[1,2,3]triazolo[4,5-c]pyridazin-6-yl}-5-(1H-pyrazol-4-yl)phenol]
- IC50: ≤ 100 nM

SMILES: [2H]C([2H])([2H])n1cc(-c2ccc(-c3cc4nnn(C5CC(C)(C)NC(C)(C)C5)c4nn3)c(O)c2)cn1 [Cpd 69, 5-[1-(^2H3)methyl-1H-pyrazol-4-yl]-2-[3-(2,2,6,6-tetramethylpiperidin-4-yl)-3H-[1,2,3]triazolo[4,5-c]pyridazin-6-yl]phenol]
- IC50: ≤ 100 nM

SMILES: CC1(C)CC(c2csc3cc(-c4ccc(-c5cn[nH]c5)cc4O)nnc23)CC(C)(C)N1 [Cpd 24, 5-(1H-pyrazol-4-yl)-2-[7-(2,2,6,6-tetramethylpiperidin-4-yl)thieno[3,2-c]pyridazin-3-yl]phenol]
- IC50: ≤ 100 nM

SMILES: CC1(C)CC(n2nnc3cc(-c4ccc(-c5cnc6nn[nH]c6c5)cc4O)nnc32)CC(C)(C)N1 [Cpd 145, 2-[3-(2,2,6,6-tetramethylpiperidin-4-yl)-3H-[1,2,3]triazolo[4,5-c]pyridazin-6-yl]-5-(1H-[1,2,3]triazolo[4,5-b]pyridin-6-yl)phenol]
- IC50: 1000 to 3000 nM

SMILES: Oc1cc(-c2cn[nH]c2)ccc1-c1cc2[nH]cc(N3CCNCC3)c2nn1 [Cpd 43, 2-[7-(piperazin-1-yl)-5H-pyrrolo[3,2-c]pyridazin-3-yl]-5-(1H-pyrazol-4-yl)phenol]
- IC50: 500 to 1000 nM

SMILES: CC1(C)CC(n2ncc3cc(-c4ccc(-n5nccn5)cc4O)nnc32)CC(C)(C)N1 [Cpd 174, 2-[1-(2,2,6,6-tetramethylpiperidin-4-yl)-1H-pyrazolo[3,4-c]pyridazin-5-yl]-5-(2H-1,2,3-triazol-2-yl)phenol]
- IC50: ≤ 100 nM

SMILES: CC1(C)CC(n2ncc3cc(-c4ccc(-c5ccncc5)cc4O)nnc32)CC(C)(C)N1 [Cpd 165, 5-(pyridin-4-yl)-2-[1-(2,2,6,6-tetramethylpiperidin-4-yl)-1H-pyrazolo[3,4-c]pyridazin-5-yl]phenol]
- IC50: ≤ 100 nM

SMILES: CC1(C)CC(n2nnc3cc(-c4ccc(-c5ccn6ccnc6c5)cc4O)nnc32)CC(C)(C)N1 [Cpd 90, 5-(imidazo[1,2-a]pyridin-7-yl)-2-[3-(2,2,6,6-tetramethylpiperidin-4-yl)-3H-[1,2,3]triazolo[4,5-c]pyridazin-6-yl]phenol]
- IC50: 100 to 500 nM

SMILES: CC1(C)CC(n2nnc3cc(-c4ccc(-c5cc[nH]n5)cc4O)nnc32)CC(C)(C)N1 [Cpd 48, 5-(1H-pyrazol-3-yl)-2-[3-(2,2,6,6-tetramethylpiperidin-4-yl)-3H-[1,2,3]triazolo[4,5-c]pyridazin-6-yl]phenol]
- IC50: 100 to 500 nM

SMILES: CC1(C)C=C(c2c[nH]c3cc(-c4ccc(-c5cn[nH]c5)cc4O)nnc23)CC(C)(C)N1 [Cpd 20, 5-(1H-pyrazol-4-yl)-2-[7-(2,2,6,6-tetramethyl-1,2,3,6-tetrahydropyridin-4-yl)-5H-pyrrolo[3,2-c]pyridazin-3-yl]phenol]
- IC50: ≤ 100 nM

SMILES: CC1(C)CC(n2nnc3cc(-c4ccc(-c5ccc(O)cn5)cc4O)nnc32)CC(C)(C)N1 [Cpd 67, 6-{3-hydroxy-4-[3-(2,2,6,6-tetramethylpiperidin-4-yl)-3H-[1,2,3]triazolo[4,5-c]pyridazin-6-yl]phenyl}pyridin-3-ol]
- IC50: ≤ 100 nM

SMILES: CC1(C)CC(n2nnc3cc(-c4ccc(-c5c[nH]nc5Cl)cc4O)nnc32)CC(C)(C)N1 [Cpd 129, 5-(3-chloro-1H-pyrazol-4-yl)-2-[3-(2,2,6,6-tetramethylpiperidin-4-yl)-3H-[1,2,3]triazolo[4,5-c]pyridazin-6-yl]phenol]
- IC50: ≤ 100 nM

SMILES: CC1(C)CC(n2nnc3cc(-c4ccc(-n5ccnn5)cc4O)nnc32)CC(C)(C)N1 [Cpd 72, 2-[3-(2,2,6,6-tetramethylpiperidin-4-yl)-3H-[1,2,3]triazolo[4,5-c]pyridazin-6-yl]-5-(1H-1,2,3-triazol-1-yl)phenol]
- IC50: 100 to 500 nM

SMILES: CC1(C)CC(n2nnc3cc(-c4ccc(-n5cnnc5)cc4O)nnc32)CC(C)(C)N1 [Cpd 64, 2-[3-(2,2,6,6-tetramethylpiperidin-4-yl)-3H-[1,2,3]triazolo[4,5-c]pyridazin-6-yl]-5-(4H-1,2,4-triazol-4-yl)phenol]
- IC50: 1000 to 3000 nM

SMILES: CC1(C)CC(n2ccc3cc(-c4ncc(-c5cn[nH]c5)cc4O)nnc32)CC(C)(C)N1 [Cpd 136, 5-(1H-pyrazol-4-yl)-2-[7-(2,2,6,6-tetramethylpiperidin-4-yl)-7H-pyrrolo[2,3-c]pyridazin-3-yl]pyridin-3-ol]
- IC50: ≤ 100 nM

SMILES: CC1(C)CC(n2nnc3cc(-c4ccc(-c5c[nH]nc5Br)cc4O)nnc32)CC(C)(C)N1 [Cpd 137, 5-(3-bromo-1H-pyrazol-4-yl)-2-[3-(2,2,6,6-tetramethylpiperidin-4-yl)-3H-[1,2,3]triazolo[4,5-c]pyridazin-6-yl]phenol]
- IC50: ≤ 100 nM
